Reference: the NIST ThermoML archive (doi:10.1021/acs.jced.5b00542)
± gives the expanded uncertainty stated by the source.

Settings: 298.15 K; 101.33 kPa; Liquid; Vibrating tube method

Compared with `CC(C)O` [propan-2-ol], `CCCCCC` [hexane] is lower in mass density: 798 ± 20 kg/m3 for the first, 659 ± 20 kg/m3 for the second.

First: c1ccccc1 [benzene]
Second: C1CCCCC1 [cyclohexane]
The mass density of the first is higher: 874 ± 20 kg/m3 for the first, 779 ± 20 kg/m3 for the second.
